Laboratory results: paper PMC4774911, “Biochemical Screening of Five Protein Kinases from Plasmodium falciparum against 14,000 Cell-Active Compounds” (PLoS ONE, 2016)

Legend:
3D7 PFLDH = system: 3D7 PFLDH; design: method as in F.J. Gamo et al., Nature 2010; concentration or dose not given beside the values; conditions: downloaded from ChEMBL, ref F.J. Gamo et al., Nature 2010; cited from earlier work
HepG2 cells = conditions: HepG2; downloaded from ChEMBL; ref F.J. Gamo et al., Nature 2010; cited from earlier work
P. falciparum 3D7 cells = conditions: 3D7; downloaded from ChEMBL; ref F.J. Gamo et al., Nature 2010; cited from earlier work
DD2 = system: DD2; design: method as in F.J. Gamo et al., Nature 2010; conditions: downloaded from ChEMBL, ref F.J. Gamo et al., Nature 2010; cited from earlier work
[1] = biological target: T1, Plasmodium falciparum calcium-dependent protein kinase 1 (CDPK1) (Plasmodium falciparum, UniProt P62344); assay: CDPK1 Kinase-Glo ATP-consumption screen and dose-response; assay type: biochemical; conditions: hits below 1 uM; read-out: CDPK1 IC50
T1 construct: 6-Histidine (N); made in house
T1 sequence (P62344 whole entry): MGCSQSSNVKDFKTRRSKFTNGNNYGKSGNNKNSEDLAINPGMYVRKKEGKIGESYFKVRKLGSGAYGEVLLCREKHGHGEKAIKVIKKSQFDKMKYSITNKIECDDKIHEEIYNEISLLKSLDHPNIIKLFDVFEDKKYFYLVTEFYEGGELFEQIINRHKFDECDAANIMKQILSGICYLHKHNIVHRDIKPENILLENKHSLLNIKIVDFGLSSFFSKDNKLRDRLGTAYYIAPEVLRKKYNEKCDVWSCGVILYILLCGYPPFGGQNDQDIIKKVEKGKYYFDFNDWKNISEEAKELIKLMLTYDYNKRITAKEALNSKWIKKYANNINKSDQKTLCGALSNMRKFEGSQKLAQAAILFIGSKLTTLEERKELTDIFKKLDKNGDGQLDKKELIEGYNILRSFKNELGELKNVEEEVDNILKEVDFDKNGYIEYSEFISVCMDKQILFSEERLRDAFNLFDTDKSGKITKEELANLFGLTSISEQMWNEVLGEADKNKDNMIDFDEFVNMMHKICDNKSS
Experimental: Biochemical assays were performed in white 384-well plates (Nunc). Liquid transfers were done manually with 8-channel pipets. Compounds were initially tested in a single-point screen (final concentration 1 μM). […] The catalytic activity of each kinase was considered proportional to ATP consumed, as determined from measurements of residual [ATP] with the luciferase-based reagent Kinase-Glo (Promega) following incubation. Luminescence (proportional to residual [ATP]) was measured on the plate readers FLx800 (BioTek Instruments, Winooski, VT, USA) and MicroBeta^2 (PerkinElmer, Waltham, MA, USA). Incubation times were chosen to ensure near-complete ATP depletion in the absence of inhibition, thus maximizing the difference in signal between inhibited and uninhibited wells.
40 μM Syntide-2 was used as a substrate; BKI-1 [14] was used as a control inhibitor, while reaction mixtures lacking Syntide-2 were included as an additional negative control. Incubation time was 90 minutes. Reactions were terminated by adding excess EGTA (5 mM), which sequesters Ca^2+ and halts calcium-dependent kinase activity.

IC50 [1] [µM] | Compound | PCT_INHIB_3D7_PFLDH (3D7 PFLDH) [%] | PCT_INHIB_HEPG2 (HepG2 cells) [%] | PCT_IHB_3D7 (P. falciparum 3D7 cells) [%] | pXC50_3D7 (P. falciparum 3D7 cells) | PCT_INHB_DD2 (DD2) [%]
0.213 | O=C(NCCN1CCCC1)c1cccc(Nc2nccc(Nc3ccc(Oc4ccccc4)cc3)n2)c1 [TCMDC-138602] | 0 | 33 | 100 | 6.184 | 18
0.139 | CN1CCN(CCCNCc2ccc(Nc3nccc(Nc4ccc(Oc5ccccc5)cc4)n3)cc2)CC1 [TCMDC-138621] | 0 | 17 | 100 | 6.197 | 9
0.798 | Cl.N#CCc1ccc(Nc2nccc(Nc3ccc(Oc4ccccc4)cc3)n2)cc1 [TCMDC-138577] | 6 | 0 | 98 | 6.094 | 47
0.25 | O=C(NCCN1CCCCC1)c1cccc(Nc2nccc(Nc3ccc(Oc4ccccc4)cc3)n2)c1 [TCMDC-138603] | 0 | 50 | 99 | 6.563 | 86
0.103 | O=C(NCCN1CCCCC1)c1ccc(Nc2nccc(Nc3ccc(Oc4ccccc4)cc3)n2)cc1 [TCMDC-138608] | 0 | 58 | 100 | 6.257 | 91
0.135 | O=C(NCCN1CCC(c2ccncc2)CC1)c1ccc(Nc2nccc(Nc3ccc(Oc4ccccc4)cc3)n2)cc1 [TCMDC-138610] | 1 | 17 | 100 | 6.14 | 90
0.22 | O=C(NCCN1CCC(c2ccncc2)CC1)c1cccc(Nc2nccc(Nc3ccc(Oc4ccccc4)cc3)n2)c1 [TCMDC-138607] | 0 | 60 | 100 | 6.773 | 91

Continued, compound first:

Compound | IC50 [1] [µM] | PCT_INHIB_3D7_PFLDH (3D7 PFLDH) [%] | PCT_INHIB_HEPG2 (HepG2 cells) [%] | PCT_IHB_3D7 (P. falciparum 3D7 cells) [%] | pXC50_3D7 (P. falciparum 3D7 cells) | PCT_INHB_DD2 (DD2) [%]
NC(=O)c1ccccc1Nc1nc(Nc2cc[nH]n2)ncc1Cl [TCMDC-134169] | 0.186 | 0 | 67 | 96 | 6.019 | 93
Cc1ccc(Nc2nc3cc(N(C)c4ccnc(Nc5cccc(CCS(C)(=O)=O)c5)n4)ccc3n2C)cc1.O=C(O)C(F)(F)F [TCMDC-138853] | 0.16 | 4 | 78 | 99 | 6.469 | 73
CCOC(=O)c1cccc(NC(=O)Nc2cccc(-c3ncc(OCCCN)c4c3nc(-c3nonc3N)n4CC)c2)c1.O=C(O)C(F)(F)F [TCMDC-136205] | 0.294 | 2 | 16 | 100 | 6.0485 | 98
Cc1ccc(Nc2nccc(N(C)c3ccc4c(c3)nc(NC(=O)Cc3ccc(Cl)c(Cl)c3)n4C)n2)cc1S(N)(=O)=O.O=C(O)C(F)(F)F [TCMDC-141965] | 0.345 | 0 | 71 | 94 | 5.954 | 60
O=C(O)C(F)(F)F.O=c1[nH]ccc2nc(N[C@@H]3CCNC3)nc(Nc3ccc4c(c3)S(=O)(=O)CC4)c12 [TCMDC-135044] | 0.235 | 0 | 0 | 100 | 6.4233 | 99
CN1CCN(CCCNCc2cccc(Nc3nccc(Nc4ccc(Oc5ccccc5)cc4)n3)c2)CC1 [TCMDC-138616] | 0.261 | 0 | 97 | 100 | 6.117 | 80
